Source: US6355799B1, “Substituted benzene compounds, process for their preparation, and herbicidal and defoliant compositions containing them” (ISK Americas Incorporated, priority 1997, dated 2002)

Columns and labels:
Type in all cases: in vivo
[1] = test system: redroot pigweed (Amaranthus retroflexus, AMARE); assay: Pre-emerge test, greenhouse herbicide activity screening; settings: pre-emerge, 14 days after application, rating scale 0-100
Outline: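 Herbicidal damage is scored 0 (none) to 100 (complete plant death) two weeks after a simulated field spray. Rates span 15–1000 g ai/ha, delivered in acetone at 187 l/ha. For post-emergence treatments, plants have 2–3 leaves and the spray carries 0.25% v/v non-ionic surfactant.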

[2] = test system: barnyardgrass (Echinochloa crus-galli, ECHCG); assay: as above; settings: pre-emerge, 14 days after application, rating scale 0-100
Outline: (§1)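 Compounds in acetone were track-sprayed at 15–1000 g ai/ha: pre-emergence onto soil sown the previous day, then top-watered to incorporate and later bottom-watered; post-emergence onto 2–3 leaf plants with 0.25% v/v surfactant, bottom-watered only. Ratings on a 0–100 phytotoxicity scale were taken at day 14.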

[3] = test system: common ragweed (Ambrosia artemisizfolia L., AMBEL); assay: as above; settings: pre-emerge, 14 days after application, rating scale 0-100
Outline: as §1

[4] = test system: green foxtail (Setaria viridis, SETVI); assay: as above; settings: pre-emerge, 14 days after application, rating scale 0-100
Outline: as §1

[5] = test system: ivyleaf morningglory (Ipomoea hederacea, IPOHE); assay: as above; settings: pre-emerge, 14 days after application, rating scale 0-100
Outline: as §1

[6] = test system: johnsongrass (Sorghum halepense, SORHA); assay: as above; settings: pre-emerge, 14 days after application, rating scale 0-100
Outline: as §1

[7] = test system: lambsquarters (Chenopodium album, CHEAL); assay: as above; settings: pre-emerge, 14 days after application, rating scale 0-100
Outline: as §1

[8] = test system: large crabgrass (Digitaria sanguinalis, DIGSA); assay: as above; settings: pre-emerge, 14 days after application, rating scale 0-100
Outline: as §1

[9] = test system: sicklepod (Cassia obtusifolia, CASOB); assay: as above; settings: pre-emerge, 14 days after application, rating scale 0-100
Outline: as §1

[10] = test system: velvetleaf (Abutilon theophrasti, ABUTH); assay: as above; settings: pre-emerge, 14 days after application, rating scale 0-100
Outline: as §1

[11] = test system: field corn (Zea mays L., var. Dekalb 535, CORN); assay: Pre-emerge test, crop safety; settings: pre-emerge, 14 days after application, rating scale 0-100
Outline: (§2)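 Fourteen days after spraying, crop and weed injury was graded visually from 0, no effect, to 100, every plant dead. Test substances were dissolved in acetone and applied at 15–1000 g ai/ha with a flat-fan nozzle. Application was either pre-emergence, one day after sowing, or post-emergence at the 2–3 leaf stage.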

[12] = test system: upland rice (Oryza sp., var. Tebonnet, RICE); assay: Pre-emerge test, crop safety; settings: pre-emerge, 14 days after application, rating scale 0-100
Outline: as §2

[13] = test system: barnyardgrass (Echinochloa crus-galli, ECHCG); assay: Post-emerge test, greenhouse herbicide activity screening; settings: post-emerge, 14 days after application, rating scale 0-100
Outline: as §2

[14] = test system: green foxtail (Setaria viridis, SETVI); assay: as above; settings: post-emerge, 14 days after application, rating scale 0-100
Outline: as §2

[15] = test system: ivyleaf morningglory (Ipomoea hederacea, IPOHE); assay: as above; settings: post-emerge, 14 days after application, rating scale 0-100
Outline: as §2

[16] = test system: johnsongrass (Sorghum halepense, SORHA); assay: as above; settings: post-emerge, 14 days after application, rating scale 0-100
Outline: as §2

[17] = test system: lambsquarters (Chenopodium album, CHEAL); assay: as above; settings: post-emerge, 14 days after application, rating scale 0-100
Outline: as §2

[18] = test system: large crabgrass (Digitaria sanguinalis, DIGSA); assay: as above; settings: post-emerge, 14 days after application, rating scale 0-100
Outline: as §2

[19] = test system: redroot pigweed (Amaranthus retroflexus, AMARE); assay: as above; settings: post-emerge, 14 days after application
Outline: as §2

[20] = test system: sicklepod (Cassia obtusifolia, CASOB); assay: as above; settings: post-emerge, 14 days after application, rating scale 0-100
Outline: as §2

[21] = test system: velvetleaf (Abutilon theophrasti, ABUTH); assay: as above; settings: post-emerge, 14 days after application, rating scale 0-100
Outline: as §2

[22] = test system: field corn (Zea mays L., var. Dekalb 535, CORN); assay: Post-emerge test, crop safety; settings: post-emerge, 14 days after application, rating scale 0-100
Outline: (§3)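 Rating: 0–100 visual injury, 14 DAA. Application: acetone, 187 l/ha, 15–1000 g ai/ha, flat-fan track sprayer with nozzle 40–45 cm above soil or canopy. Post-emerge runs used 0.25% v/v surfactant on 2–3 leaf plants.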

[23] = test system: upland rice (Oryza sp., var. Tebonnet, RICE); assay: Post-emerge test, crop safety; settings: post-emerge, 14 days after application, rating scale 0-100
Outline: as §3

CCCOC(=O)C(Cl)Cc1c(OCC)c(Cl)cc(F)c1-n1c(=O)cc(C(F)(F)F)n(C)c1=O (stereo not shown) [14-65]
0: phytotoxicity rating ECHCG ([2]; 63 g ai/ha) | phytotoxicity rating CORN ([11]; 63 g ai/ha) | phytotoxicity rating CORN ([11]; 250 g ai/ha) | phytotoxicity rating RICE ([12]; 63 g ai/ha) | phytotoxicity rating RICE ([12]; 250 g ai/ha) | Post-emerge Herbicidal Activity CORN (crop damage rating) ([22]; 63 g ai/ha) | Post-emerge Herbicidal Activity RICE (crop damage rating) ([23]; 63 g ai/ha)
60: phytotoxicity rating CHEAL ([7]; 63 g ai/ha) | Post-emerge Herbicidal Activity SORHA (phytotoxicity rating) ([16]; 250 g ai/ha)
10: Post-emerge Herbicidal Activity RICE (crop damage rating) ([23]; 250 g ai/ha)
50: Post-emerge Herbicidal Activity IPOHE (phytotoxicity rating) ([15]; 63 g ai/ha) | Post-emerge Herbicidal Activity CORN (crop damage rating) ([22]; 250 g ai/ha)
70: phytotoxicity rating AMBEL ([3]; 250 g ai/ha) | phytotoxicity rating IPOHE ([5]; 250 g ai/ha) | Post-emerge Herbicidal Activity IPOHE (phytotoxicity rating) ([15]; 250 g ai/ha)
40: phytotoxicity rating IPOHE ([5]; 63 g ai/ha) | phytotoxicity rating CASOB ([9]; 63 g ai/ha)
30: Post-emerge Herbicidal Activity SORHA (phytotoxicity rating) ([16]; 63 g ai/ha)
99: Post-emerge Herbicidal Activity DIGSA (phytotoxicity rating) ([18]; 63 g ai/ha)
90: phytotoxicity rating SETVI ([4]; 250 g ai/ha) | phytotoxicity rating DIGSA ([8]; 63 g ai/ha) | phytotoxicity rating ABUTH ([10]; 63 g ai/ha) | Post-emerge Herbicidal Activity CHEAL (phytotoxicity rating) ([17]; 63 g ai/ha) | Post-emerge Herbicidal Activity CASOB (phytotoxicity rating) ([20]; 63 g ai/ha)
80: phytotoxicity rating ECHCG ([2]; 250 g ai/ha) | phytotoxicity rating CASOB ([9]; 250 g ai/ha)
100: phytotoxicity rating AMARE ([1]; 63 g ai/ha) | phytotoxicity rating AMARE ([1]; 250 g ai/ha) | phytotoxicity rating AMBEL ([3]; 63 g ai/ha) | phytotoxicity rating CHEAL ([7]; 250 g ai/ha) | phytotoxicity rating DIGSA ([8]; 250 g ai/ha) | phytotoxicity rating ABUTH ([10]; 250 g ai/ha) | Post-emerge Herbicidal Activity ECHCG (phytotoxicity rating) ([13]; 63 g ai/ha) | Post-emerge Herbicidal Activity ECHCG (phytotoxicity rating) ([13]; 250 g ai/ha) | Post-emerge Herbicidal Activity SETVI (phytotoxicity rating) ([14]; 63 g ai/ha) | Post-emerge Herbicidal Activity SETVI (phytotoxicity rating) ([14]; 250 g ai/ha) | Post-emerge Herbicidal Activity CHEAL (phytotoxicity rating) ([17]; 250 g ai/ha) | Post-emerge Herbicidal Activity DIGSA (phytotoxicity rating) ([18]; 250 g ai/ha) | Post-emerge Herbicidal Activity AMARE (phytotoxicity rating) ([19]; 63 g ai/ha, rating scale 0-100 (0 no damage, 100 complete death)) | Post-emerge Herbicidal Activity AMARE (phytotoxicity rating) ([19]; 250 g ai/ha, rating scale 0-100) | Post-emerge Herbicidal Activity CASOB (phytotoxicity rating) ([20]; 250 g ai/ha) | Post-emerge Herbicidal Activity ABUTH (phytotoxicity rating) ([21]; 63 g ai/ha) | Post-emerge Herbicidal Activity ABUTH (phytotoxicity rating) ([21]; 250 g ai/ha)
20: phytotoxicity rating SETVI ([4]; 63 g ai/ha) | phytotoxicity rating SORHA ([6]; 63 g ai/ha) | phytotoxicity rating SORHA ([6]; 250 g ai/ha)
